According to US20220220481A1, “LIPID OLIGONUCLEOTIDE ANTISENSE AGAINST ANTIBIOTIC RESISTANCE” (priority 2019, published 2022):

Key:
[1] = system: E. coli TcK12 (resistant, blaCTX-M-15 plasmid); assay: Ceftriaxone MIC with or without ASOs/LASOs, liquid micro-dilution, resistant laboratory strain; type: cell-based, Escherichia coli; conditions: TcK12, 24 h
Text: E. coli strains used included the clinical strain Ec3536 collected from a urine sample of the community patient and provided from the MFP Laboratory collection (Arpin et al. (2009) J. Antimicrob. Chemother. 63:1205-1214). Its conjugative plasmid containing the blaCTX-M-15 gene was transferred by conjugation experiment in a laboratory recipient cell of E. coli K12. Consequently, the transconjugant E. coli TcK12 was resistant to ceftriaxone (CFX) (Arpin et al. (2009) J. Antimicrob. Chemother. 63:1205-1214).
(§1) Determination of minimum inhibitor concentration (MICs) of free CFX with or without ASOs/LASOs was performed on different strains of E. coli, i.e. the CFX sensitive strain K12, and the two resistant strains TcK12 and Ec3536.
(§2) MICs of free CFX with ASOs/LASOs were determined in accordance with the standard method of liquid micro-dilution.
Each bacterial strain that had been frozen at −80° C. was isolated on Mueller-Hinton (MH) agar during 16 h at 37° C. A bacterial suspension in solution of 0.85% NaCl was prepared in order to obtain a turbidity equivalent to standard 0.5 of McFarland range and then diluted 1/100 in MH that correspond to a bacterial inoculum of ca. 10^6 CFU/mL. […]
(§3) Preliminary data allowed to optimize the analysis of microplates using turbidimeter (Apollo LB 911 (Berthold)) at the wavelength of 620 nm, read in triplicate at 0 h, and 24 h. […]

[2] = system: E. coli K12 (CFX sensitive strain); assay: Ceftriaxone MIC with or without ASOs/LASOs, liquid micro-dilution, sensitive strain; type: cell-based, Escherichia coli; conditions: K12, 24 h, SD 0, n=3
Experimental: as §1, §2
Each bacterial strain that had been frozen at −80° C. was isolated on Mueller-Hinton (MH) agar during 16 h at 37° C. A bacterial suspension in solution of 0.85% NaCl was prepared in order to obtain a turbidity equivalent to standard 0.5 of McFarland range and then diluted 1/100 in MH that correspond to a bacterial inoculum of ca. 10^6 CFU/mL. The bacterial suspension was afterwards mixed with ASOs, LASOs at 2-fold desired concentration in MH. Then 50 μL of bacterial suspension mixed with 50 μl MH, containing oligonucleotides or CFX, was dispensed into the microplate wells immediately. The final volume per well was 100 μL. The concentration of oligonucleotides in well was fixed at 5 μM except for dose-effect tests. The concentration range of LASOs from 0.05 μM to 50 μM was tested. The range of CFX concentration was adjusted to surround the MIC of each bacterial strain. […]
as §3

## CO/N=C(\C(=O)N[C@@H]1C(=O)N2C(C(=O)O)=C(CSc3nc(=O)c(=O)[nH]n3C)CS[C@H]12)c1csc(N)n1 [CFX, ceftriaxone]
[1]
  CFX MIC without oligonucleotide (means of MICs): 1365 µg/mL
[2]
  CFX MIC in absence of antisense sequences: 0.06 µg/mL
